According to patent publication US7063844B2, “Presentation of hydrophobic antigens to T-cells by CD1 molecules” (The Brigham and Women's Hospital, Inc., priority 1992, dated 2006):
Like-named read-outs stand apart in the source and are kept apart here.

Tests used:
[1] = system: T-cell line BDN2; format: cell-based, human
[2] = system: T-cell line LDN4; experiment: Proliferation of CD1b-restricted line LDN4; format: cell-based, human
[3] = in vivo; cited from earlier work
[4] = system: T-cell line DN1; format: cell-based, human; conditions: CD1+ APCs (GM-CSF- and IL-4-treated monocytes)
[5] = system: peripheral blood monocytes; experiment: CD1 expression on cytokine-cultured monocytes, flow cytometry; format: cell-based, human; conditions: for expression of CD1a, CD1b and CD1c on monocytes: monocytes cultured with cytokine, 60 hours
[6] = system: T-cell lines SP-F3, CP.1.15, BK6; experiment: Proliferation of further T-cell lines to test mitogenicity (SP-F3, CP.1.15, BK6); format: cell-based, human
[7] = system: T-cell line OGD1; experiment: Proliferation assay, TCR γδ+ line OGD1; format: cell-based, human; conditions: activated monocytes, 3 day assay
[8] = system: T-cell line OAB8; experiment: Proliferation assay, CD8+ TCR αβ+ line OAB8; format: cell-based, human; conditions: mycolic acid at 1 μg/ml
[9] = system: T-cell line DN6; experiment: Proliferation assay, CD1c-restricted line DN6; format: cell-based, human; conditions: CD1+ APCs
[10] = system: T-cell line DG.1; format: cell-based, human; conditions: CD1+ PBMCs from HLA-DR7 positive individual as APCs

lipoarabinomannan [LAM]
response of BDN2 to antigen [1]: responded
proliferative response of LDN4 to antigen [2]: proliferated
proliferative response of LDN4 to antigen ([2]; listed as Lep LAM): stimulated
proliferative response of LDN4 to antigen ([2]; listed as native LAM): striking T-cell proliferation

6,6-trehalose dimycolate
antibody formation [3]: enhance antibody formation
nonspecific immunity to bacterial infections and tumors [3]: stimulate nonspecific immunity
proliferative response of T-cell line DN1 to antigen [4]: stimulated the proliferation

GM-CSF: granulocyte/monocyte colony stimulating factor used alone
expression of CD1a, CD1b and CD1c on monocytes [5]: somewhat less

mycolic acid-arabinogalactan-peptidoglycan [mAGP]
proliferative response of LDN4 to antigen [2]: No response

phosphatidylinositol mannoside [PIM]
proliferative response of LDN4 to antigen [2]: ten-fold more than media alone

mycolic acid
proliferative response of T-cell line DN1 to antigen [4]: recognized
proliferative response of SP-F3, CP.1.15 and BK6 [6]: did not respond
mitogenicity ([6]; six T-cell lines tested): not mitogenic
response of OGD1 to antigen [7]: recognized
response of OAB8 to antigen [8]: recognized
recognition by T-cell line DN6 (proliferative response) [9]: recognized only by CD1b-restricted DN1 T-cells
recognition by T-cell line DG.1 (proliferative response) [10]: recognized only by CD1b-restricted DN1 T-cells

CCCCCCCCCCCCCCCCCCCCCC(=O)OC[C@H]1O[C@H](O[C@H]2O[C@H](COC(=O)CCCCCCCCCCCCCCCCCCCCC)[C@@H](O)[C@H](O)[C@H]2O)[C@H](O)[C@@H](O)[C@@H]1O [trehalose dibehanate]
proliferative response of T-cell line DN1 to antigen [4]: no stimulation

B1: Il-10: cytokine strongly expressed in lepromatous lesions (protein, UniProt P22301 19-178, looked up)
Interleukin-10: SPGQGTQSENSCTHFPGNLPNMLRDLRDAFSRVKTFFQMKDQLDNLLLKESLLEDFKGYLGCQALSEMIQFYLEEVMPQAENQDPDIKAHVNSLGENLKTLRLRLRRCHRFLPCENKSKAVEQVKNAFNKLQEKGIYKAMSEFDIFINYIEAYMTMKIRN
inhibition of the expression of CD1 on monocytes ([5]; data not shown): could inhibit

B2: interferon-γ: cytokine, 100 U/ml (protein, UniProt P01579 24-161, looked up)
Interferon gamma: QDPYVKEAENLKKYFNAGHSDVADNGTLFLGILKNWKEESDRKIMQSQIVSFYFKLFKNFKDDQSIQKSVETIKEDMNVKFFNSNKKKRDDFEKLTNYSVTDLNVQRKAIHELIQVMAELSPAAKTGKRKRSQMLFRG
expression of CD1a, CD1b and CD1c on monocytes [5]: did not express significant levels
